Source: patent US20230183193A1, “4-DIFLUOROMETHYL BENZOYL AMIDES WITH HERBICIDAL ACTION” (BAYER CROPSCIENCE AKTIENGESELLSCHAFT, priority 2017, published 2023)

How the values were obtained:
Alopecurus myosuroides [1] = assay: Pre-emergence herbicidal action, ALOMY; type: in vivo
Summary of the method: (§1)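 Weed seeds were laid out in sandy loam and covered with soil, then the soil surface was treated with an aqueous suspension or emulsion of the formulated compound containing 0.2% wetting agent. Pots stayed in the greenhouse for 3 weeks before damage was rated visually against untreated plants.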

Avena fatua [2] = assay: Pre-emergence herbicidal action, AVEFA; type: in vivo
Summary of the method: as §1

Stellaria media [3] = assay: Post-emergence herbicidal action, STEME; type: in vivo
Summary of the method: (§2)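 Post-emergence spray; one-leaf stage (2–3 wk after sowing), sandy loam, greenhouse. WP/EC in water, 600 to […], +0.2% wetting agent. Visual % damage vs untreated at ~3 wk; 100% = plants dead.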

Matricaria inodora [4] = assay: Post-emergence herbicidal action, MATIN; type: in vivo; conditions: 80 g/ha, comparison with WO2011035874, Table F
Procedure: Seeds of monocotyledonous and dicotyledonous weed and crop plants are laid out in sandy loam soil in wood-fiber pots, covered with soil and cultivated in a greenhouse under good growth conditions. 2 to 3 weeks after sowing, the test plants are treated at the one-leaf stage. The compounds of the invention, formulated in the form of wettable powders (WP) or as emulsion concentrates (EC), are then sprayed onto the green parts of the plants in the form of an aqueous suspension or emulsion at a water application rate equating to […], with addition of 0.2% wetting agent. After the test plants have been left to stand in the greenhouse under optimal growth conditions for about 3 weeks, the action of the preparations is assessed visually in comparison to untreated controls (herbicidal action in percent (%): 100% activity=the plants have died, 0% activity=like control plants). […] At the same time, inventive compounds leave Gramineae crops such as barley, wheat, rye, millet/sorghum, corn or rice virtually undamaged when applied post-emergence, even at high active compound dosages. In addition, some substances are also harmless to dicotyledonous crops such as soya, cotton, oilseed rape, sugar beet or potatoes. Some of the compounds according to the invention have high selectivity and are therefore suitable for controlling unwanted vegetation in agricultural crops by the post-emergence method. The data of Tables C and D below illustrate, in an exemplary manner, the […] herbicidal action of the compounds according to the invention, the herbicidal activity being stated in percent.
(§3) For comparison, the herbicidal activity of numerous compounds according to the invention was tested with the structurally closest compounds known from the documents WO 2011/035874, WO 2012/028579 and WO 2012/126932, by the pre- and post-emergence method.

Stellaria media [5] = assay: Pre-emergence herbicidal action, STEME; type: in vivo; conditions: for Herbicidal efficacy against STEME: comparison with WO 2011035874, Table H
Summary of the method: as §1

Veronica persica = assay: Pre-emergence herbicidal action, VERPE; type: in vivo; conditions: comparison with WO 2011035874, Table H
From the text: (§4) 1. Pre-Emergence Herbicidal Action Against Harmful Plants Seeds of monocotyledonous and dicotyledonous weed plants and crop plants are laid out in sandy loam soil in wood-fiber pots and covered with soil. The compounds of the invention, formulated in the form of wettable powders (WP) or as emulsion concentrates (EC), are then applied to the surface of the covering soil in the form of an aqueous suspension or emulsion at a water application rate equating to […], with addition of 0.2% wetting agent. After the treatment, the pots are placed in a greenhouse and kept under good growth conditions for the trial plants. The damage to the test plants is scored visually after a test period of 3 weeks by comparison with untreated controls (herbicidal activity in percent (%): 100% activity=the plants have died, 0% activity=like control plants).
as §3

Polygonum convolvulus = assay: Pre-emergence herbicidal action, POLCO; type: in vivo
Summary of the method: as §1

Amaranthus retroflexus [6] = assay: Pre-emergence herbicidal action, AMARE; type: in vivo; conditions: for Herbicidal efficacy against AMARE: comparison with WO 2011035874, Table H
Summary of the method: as §1

Viola tricolor [7] = assay: Pre-emergence herbicidal action, VIOTR; type: in vivo
Summary of the method: as §1

Setaria viridis [8] = assay: Pre-emergence herbicidal action, SETVI; type: in vivo
Summary of the method: as §1

ECHCG [9] = assay: Pre-emergence herbicidal action, ECHCG; type: in vivo; conditions: comparison with WO 2011035874, Table G
From the text: as §4

Cyperus serotinus = assay: Pre-emergence herbicidal action, CYPES; type: in vivo
Summary of the method: as §1

Abutilon theophrasti [10] = assay: Pre-emergence herbicidal action, ABUTH; type: in vivo
Summary of the method: as §1

Pharbitis purpureum = assay: Post-emergence herbicidal action, PHBPU; type: in vivo; conditions: 80 g/ha
Summary of the method: as §2

Viola tricolor [11] = assay: Post-emergence herbicidal action, VIOTR; type: in vivo
Summary of the method: as §2

Avena fatua [12] = assay: Post-emergence herbicidal action, AVEFA; type: in vivo
Summary of the method: as §2

Amaranthus retroflexus [13] = assay: Post-emergence herbicidal action, AMARE; type: in vivo; conditions: 80 g/ha, Table D
Summary of the method: as §2

ECHCG [14] = assay: Post-emergence herbicidal action, ECHCG; type: in vivo; conditions: 80 g/ha, Table C
Summary of the method: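 Weed and crop plants grown in sandy loam in the greenhouse, treated at the one-leaf stage 2–3 weeks after sowing. Damage scored visually after about 3 weeks vs untreated controls (0% = control, 100% = dead).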

ECHCG [15] = assay: Pre-emergence herbicidal action, ECHCG; type: in vivo, Echinochloa crus-galli
Matricaria inodora [16] = assay: Pre-emergence herbicidal action, MATIN; type: in vivo; conditions: for Herbicidal efficacy against MATIN: Table K
Summary of the method: as §1

Setaria viridis [17] = assay: Post-emergence herbicidal action, SETVI; type: in vivo
Summary of the method: as §2

Alopecurus myosuroides [18] = assay: Post-emergence herbicidal action, ALOMY; type: in vivo
Summary of the method: as §2

Abutilon theophrasti [19] = assay: Post-emergence herbicidal action, ABUTH; type: in vivo; conditions: 80 g/ha
Summary of the method: as §2

[20] = 320 g/ha, comparison with WO 2011035874, Table G
[21] = 80 g/ha, comparison with WO2011035874, Table F
[22] = 320 g/ha, comparison with WO 2011035874, Table H
[23] = comparison with WO2011035874, Table F
[24] = 80 g/ha, comparison with WO 2011035874, Table G
[25] = dosage 320 g/ha, scored visually after 3 weeks vs untreated controls
[26] = 80 g/ha, comparison with WO 2011035874, Table H

## CC[S+]([O-])c1c(C(F)F)ccc(C(=O)Nc2nnnn2C)c1I (stereo not drawn) [Example 1-77]
Alopecurus myosuroides [1]; [20]
  Herbicidal efficacy against ALOMY: 10%
Avena fatua [2]; [20]
  Herbicidal efficacy against AVEFA: 0%
Stellaria media [3]; [21]
  Herbicidal efficacy against STEME: 80%
Matricaria inodora [4]
  Herbicidal efficacy against MATIN: 0%
Stellaria media [5]; 320 g/ha
  Herbicidal efficacy against STEME: 80%
Veronica persica; 320 g/ha
  Herbicidal efficacy against VERPE: 90%
Polygonum convolvulus; [22]
  Herbicidal efficacy against POLCO: 30%
Amaranthus retroflexus [6]; 320 g/ha
  Herbicidal efficacy against AMARE: 100%
Viola tricolor [7]; [22]
  Herbicidal efficacy against VIOTR: 60%
Setaria viridis [8]; [20]
  Herbicidal efficacy against SETVI: 20%
ECHCG [9]; 320 g/ha
  Herbicidal efficacy against ECHCG: 70%
Cyperus serotinus; [20]
  Herbicidal efficacy against CYPES: 30%
Abutilon theophrasti [10]; [20]
  Herbicidal efficacy against ABUTH: 100%
Pharbitis purpureum; [23]
  Herbicidal efficacy against PHBPU: 40%
Viola tricolor [11]; [21]
  Herbicidal efficacy against VIOTR: 60%

## Cn1nnnc1NC(=O)c1ccc(C(F)F)c(S(C)(=O)=O)c1Cl [Example 1-51]
Alopecurus myosuroides [1]; 20 g/ha
  Herbicidal efficacy against ALOMY: 80
Alopecurus myosuroides [1]; 80 g/ha
  Herbicidal efficacy against ALOMY: 100
Alopecurus myosuroides [1]; [24]
  Herbicidal efficacy against ALOMY: 10%
Alopecurus myosuroides [1]; 320 g/ha
  Herbicidal efficacy against ALOMY: 100
Alopecurus myosuroides [1]; [25]
  herbicidal activity ALOMY: 100%
Avena fatua [2]; 80 g/ha
  Herbicidal efficacy against AVEFA: 90
Avena fatua [2]; [24]
  Herbicidal efficacy against AVEFA: 0%
Avena fatua [2]; 320 g/ha
  Herbicidal efficacy against AVEFA: 100
Avena fatua [2]; [25]
  herbicidal activity AVEFA: 100%
Avena fatua [12]; 5 g/ha
  Herbicidal efficacy against AVEFA: 60
Avena fatua [12]; 20 g/ha
  Herbicidal efficacy against AVEFA: 90
Avena fatua [12]; 80 g/ha
  Herbicidal efficacy against AVEFA: 100
Avena fatua [12]; 80 g/ha, Table C
  herbicidal activity AVEFA: 100%
Amaranthus retroflexus [13]
  herbicidal activity AMARE: 100%
Stellaria media [3]; 5 g/ha
  Herbicidal efficacy against STEME: 100
Stellaria media [3]; 20 g/ha
  Herbicidal efficacy against STEME: 100
Stellaria media [3]; 80 g/ha
  Herbicidal efficacy against STEME: 100
Stellaria media [3]; 80 g/ha, Table D
  Herbicidal activity STEME: 100%
Stellaria media [3]; [21]
  Herbicidal efficacy against STEME: 40%
ECHCG [14]
  Herbicidal activity ECHCG: 100%
ECHCG [15]; 20 g/ha
  Herbicidal efficacy against ECHCG: 100
ECHCG [15]; 80 g/ha
  Herbicidal efficacy against ECHCG: 100
ECHCG [15]; 320 g/ha
  Herbicidal efficacy against ECHCG: 100
Stellaria media [5]; 80 g/ha
  Herbicidal efficacy against STEME: 90%
Stellaria media [5]; [25]
  Herbicidal activity STEME: 100%
Veronica persica; 80 g/ha
  Herbicidal efficacy against VERPE: 100%
Matricaria inodora [16]; dosage 20 g/ha
  Herbicidal efficacy against MATIN: 90
Matricaria inodora [16]; dosage 80 g/ha
  Herbicidal efficacy against MATIN: 100
Matricaria inodora [16]; dosage 320 g/ha
  Herbicidal efficacy against MATIN: 100
Matricaria inodora [16]; [25]
  herbicidal activity MATIN: 100%
Setaria viridis [17]; 5 g/ha
  Herbicidal efficacy against SETVI: 90
Setaria viridis [17]; 20 g/ha
  Herbicidal efficacy against SETVI: 100
Setaria viridis [17]; 80 g/ha
  Herbicidal efficacy against SETVI: 100
Setaria viridis [17]; 80 g/ha, Table C
  herbicidal activity SETVI: 100%
Polygonum convolvulus; [26]
  Herbicidal efficacy against POLCO: 0%
Polygonum convolvulus; dosage 20 g/ha, Table K
  Herbicidal efficacy against POLCO: 30
Polygonum convolvulus; dosage 80 g/ha, Table K
  Herbicidal efficacy against POLCO: 80
Polygonum convolvulus; dosage 320 g/ha, Table K
  Herbicidal efficacy against POLCO: 90
Amaranthus retroflexus [6]; 80 g/ha
  Herbicidal efficacy against AMARE: 100%
Amaranthus retroflexus [6]; [25]
  herbicidal activity AMARE: 100%
Viola tricolor [7]; [26]
  Herbicidal efficacy against VIOTR: 60%
Viola tricolor [7]; dosage 20 g/ha, Table K
  Herbicidal efficacy against VIOTR: 100
Viola tricolor [7]; dosage 80 g/ha, Table K
  Herbicidal efficacy against VIOTR: 100
Viola tricolor [7]; dosage 320 g/ha, Table K
  Herbicidal efficacy against VIOTR: 100
Viola tricolor [7]; [25]
  herbicidal activity VIOTR: 100%
Setaria viridis [8]; 20 g/ha
  Herbicidal efficacy against SETVI: 100
Setaria viridis [8]; 80 g/ha
  Herbicidal efficacy against SETVI: 100
Setaria viridis [8]; [24]
  Herbicidal efficacy against SETVI: 60%
Setaria viridis [8]; 320 g/ha
  Herbicidal efficacy against SETVI: 100
Setaria viridis [8]; [25]
  herbicidal activity SETVI: 100%
Alopecurus myosuroides [18]; 5 g/ha
  Herbicidal efficacy against ALOMY: 40
Alopecurus myosuroides [18]; 20 g/ha
  Herbicidal efficacy against ALOMY: 90
Alopecurus myosuroides [18]; 80 g/ha
  Herbicidal efficacy against ALOMY: 100
Alopecurus myosuroides [18]; 80 g/ha, Table C
  herbicidal activity ALOMY: 100%
ECHCG [9]; 80 g/ha
  Herbicidal efficacy against ECHCG: 30%
Cyperus serotinus; 20 g/ha
  Herbicidal efficacy against CYPES: 90
Cyperus serotinus; 80 g/ha
  Herbicidal efficacy against CYPES: 90
Cyperus serotinus; [24]
  Herbicidal efficacy against CYPES: 0%
Cyperus serotinus; 320 g/ha
  Herbicidal efficacy against CYPES: 100
Cyperus serotinus; [25]
  herbicidal activity CYPES: 100%
Abutilon theophrasti [10]; [24]
  Herbicidal efficacy against ABUTH: 100%
Abutilon theophrasti [10]; dosage 20 g/ha, Table K
  Herbicidal efficacy against ABUTH: 100
Abutilon theophrasti [10]; dosage 80 g/ha, Table K
  Herbicidal efficacy against ABUTH: 100
Abutilon theophrasti [10]; dosage 320 g/ha, Table K
  Herbicidal efficacy against ABUTH: 100
Abutilon theophrasti [10]; [25]
  herbicidal activity ABUTH: 100%
Pharbitis purpureum; Table D
  Herbicidal activity PHBPU: 100%
Abutilon theophrasti [19]; Table D
  herbicidal activity ABUTH: 100%
Abutilon theophrasti [19]; [23]
  Herbicidal efficacy against ABUTH: 80%
Viola tricolor [11]; 5 g/ha
  Herbicidal efficacy against VIOTR: 100
Viola tricolor [11]; 20 g/ha
  Herbicidal efficacy against VIOTR: 100
Viola tricolor [11]; 80 g/ha
  Herbicidal efficacy against VIOTR: 100
Viola tricolor [11]; 80 g/ha, Table D
  herbicidal activity VIOTR: 100%
